Data reported in PMC7311426, “An amphipathic peptide with antibiotic activity against multidrug-resistant Gram-negative bacteria” (Nature Communications, 2020).
Converted amounts (≈) assume the structure as drawn. Read-outs that look alike come from different tables or passages of the source. Residues, ends and D or L forms follow the SMILES beside them.

Assays:
Experiment in all cases: microbe, parasite or virus in culture
[1] = tested on: P. aeruginosa (UNT138-1 & ATCC 27853); format: cell-based, Pseudomonas aeruginosa
Experimental: (§1) The test media was cation-adjusted MHB (CAMHB, Becton Dickinson) supplemented with 2% Noble Agar (Becton Dickinson) and additionally for AA139 with 0.1% BSA. The agar dilution MIC values were determined as recommended by Clinical and Laboratory Standards Institute (CLSI)[47]. […] The inoculum for the spontaneous mutation plates targeted 10^9 to 10^10 colony-forming units (CFU) per plate. The viable count of each suspension was determined by plating serial ten-fold dilutions onto MHB/NA in duplicate. In addition, agar plates without drug were inoculated as positive controls. Plates were inspected for growth at both 24 and 48 h. Colony counts were determined manually. Using the counts at 48 h, the spontaneous mutation frequency was calculated using the following equation: (average number of colonies from duplicate selection plates)/(total number of cells inoculated onto each plate). If there were no colonies on the antibiotic selection plates, the spontaneous mutation frequency was reported as less than the frequency observed with one colony to indicate that the spontaneous mutation frequency was less than the limit of detection (one CFU).

K. pneumoniae = format: cell-based, Klebsiella pneumoniae; conditions: n=2 to 6, mode or median
[2] = tested on: P. aeruginosa clinical isolates
Procedure, shortened: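 MIC90 from CLSI broth microdilution (M07-A9) in two clinical-isolate panels. US panel (331 isolates, 2010-2012): AA139 diluted in 0.01% acetic acid/0.1% BSA. Worldwide panel (445 isolates, 2011-2013, four regions): CAMHB, with 0.002% Tween 80 added for AA139 and polymyxin B.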

P. aeruginosa = format: cell-based, Pseudomonas aeruginosa; conditions: P. aeruginosa FADDI-070 MDR, PmxR; n=2 to 6, mode or median
[3] = tested on: E. coli (AID#172 & ATCC 25922); format: cell-based, Escherichia coli; conditions: for MIC: Escherichia coli
Experimental: as §1

E. coli ATCC 25922 = format: cell-based, Escherichia coli; conditions: ATCC 25922
Procedure, shortened: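 Broth microdilution MIC in Mueller Hinton broth, 12-point 2-fold series from 128 or 64 down to 0.06 or 0.03 μg mL^−1, 5 × 10^5 CFU mL^−1 inoculum. Read visually after 18-20 h at 37 °C without shaking; n ≥ 6. Additional tests in CAMHB, and in MHB with 1% agarose.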

SMILES	Agar (Noble) Dilution MIC ([1]; P. aeruginosa ATCC 27853) [µg/mL]	Agar (Noble) Dilution MIC ([1]; P. aeruginosa UNT138-1) [µg/mL]	MIC, Serum (50%) (K. pneumoniae; K. pneumoniae ATCC 700603 ESBL, OXA-2/SHV-18) [µg/mL]	MIC, Survanta (5%) (K. pneumoniae; K. pneumoniae BAA-2146 NDM-1) [µg/mL]	MIC against colistin-resistant isolates (did not surpass) ([2]; P. aeruginosa with a colistin MIC of >32 μg mL^−1, US panel) [µg/mL]	MIC90 ([2]; US isolates 2010–2012, P. aeruginosa Non-MDR, n = 41) [µg/mL]	MIC90 ([2]; US isolates 2010–2012, P. aeruginosa XDR, n = 37) [µg/mL]	MIC90 ([2]; Worldwide isolates 2011–2013, P. aeruginosa incl. non-MDR, MDR, XDR, n = 111) [µg/mL]	MIC90 (P. aeruginosa) ([2]; clinical isolates) [µg/mL]	MIC, Serum (50%) (P. aeruginosa) [µg/mL]	MIC, Survanta (5%) (P. aeruginosa) [µg/mL]	Agar (Noble) Dilution MIC ([3]; E. coli ATCC 25922) [µg/mL]	Agar (Noble) Dilution MIC ([3]; E. coli AUD172) [µg/mL]	MIC, MHB (E. coli ATCC 25922) [µg/mL]	MIC ([1]; Pseudomonas aeruginosa, ATCC27853, read-out: Agar (Noble) Dilution MIC, P. aeruginosa ATCC 27853) [µg/mL]	MIC90 ([2]; Pseudomonas aeruginosa) [µg/mL]	MIC90 ([2]; Worldwide isolates 2011-2013, P. aeruginosa n = 111) [µg/mL]	MIC ([3]; ATCC25922, read-out: Agar (Noble) Dilution MIC, E. coli ATCC 25922) [µg/mL]	MIC ([3]; ATCC25922, read-out: Agar (Noble) Dilution MIC, E. coli AUD172) [µg/mL]
CC(C)[C@@H]1NC(=O)[C@H](Cc2ccc(O)cc2)NC(=O)[C@H](Cc2c[nH]c3ccccc23)NC(=O)[C@@H](NC(=O)[C@H](Cc2ccccc2)NC(=O)CN)CSSC[C@@H](C(=O)N[C@@H](CC(N)=O)C(=O)O)NC(=O)[C@H](CCCNC(=N)N)NC(=O)[C@H](CCCNC(=N)N)NC(=O)[C@H](Cc2ccc(O)cc2)NC(=O)[C@@H]2CSSC[C@H](NC1=O)C(=O)N[C@@H](C)C(=O)N[C@@H](CCCNC(=N)N)C(=O)N[C@@H](CCCNC(=N)N)C(=O)N[C@@H](CC(N)=O)C(=O)NCC(=O)N[C@@H](C)C(=O)N[C@@H](CCCNC(=N)N)C(=O)N[C@@H](C(C)C)C(=O)N2 [AA139] (HELM PEPTIDE1{G.F.C.W.Y.V.C.A.R.R.N.G.A.R.V.C.Y.R.R.C.N}$PEPTIDE1,PEPTIDE1,3:R3-20:R3|PEPTIDE1,PEPTIDE1,7:R3-16:R3$$$V2.0)	8	16	8 (≈ 3.14 µM)	2 (≈ 0.784 µM)	≤ 8	8 (≈ 3.14 µM)	4 (≈ 1.57 µM)	8 (≈ 3.14 µM)	8.0 (≈ 3.14 µM)	8 (≈ 3.14 µM)	8 (≈ 3.14 µM)	8	8	0.125 (≈ 0.049 µM)					
C[C@H]1COc2c(N3CCN(C)CC3)c(F)cc3c(=O)c(C(=O)O)cn1c23 [LEV, levofloxacin, reference compound]															2 (≈ 5.53 µM)	> 32	> 32	0.03 (≈ 0.083 µM)	8 (≈ 22.1 µM)
